From patent US5106407A, “Iodones and methods for antimicrobial use” (priority 1989, dated 1992)
≈ marks a conversion by molar mass, not a printed value. Read-outs that look alike come from different tables or passages of the source.

Columns and labels:
Assay in all cases: minimum inhibitory concentration (MIC), agar dilution
Assay type in all cases: cell-based
Bacillus subtilis = tested on: Bacillus subtilis
Procedure: (§1) The minimum inhibitory concentration (MIC) for the compound of Example 19, i.e., (2-nitrophenyl)-iodonium 2,2-dimethyl-4,6-dioxo-1,3-dioxan-5-ylide was determined for 9 bacteria (using nutrient agar) and 5 yeast and fungi (using malt yeast agar). A one percent solution of this test compound (i.e., the compound of Example 19) was prepared in a mixture of acetone-water. Nutrient agar was prepared at pH 6.8 using deionized water according to standard Difco procedures. Malt yeast agar was prepared by adding 3 g Bacto yeast extract and 42 g Bacto Malt agar per liter of deionized water. The agar (nutrient agar when testing with bacteria and malt yeast agar when testing with yeast and fungi) was dispensed in 30 mL aliquots into 25×200 millimeter (mm) test tubes, capped and autoclaved for 15 min at 115° C. The test tubes containing the agar were cooled in a water bath until the temperature of the agar was 48° C. and then an appropriate amount of the one percent solution of the test compound was added (except in the controls where no test compound was added with the acetone-water) to the respective test tubes so that final concentrations of 500, 250, 100, 50, 25, 10, 5, 2.5, 1.0 and 0 parts per million (ppm) of the test compound in the agar were obtained. The agar solutions were each mixed and poured into individual petri plates so that each petri plate contained agar having a known concentration of test compound dispersed therein. After drying for 24 hr, the petri plates were inoculated with bacteria when the petri plates contained nutrient broth agar or with fungi and yeast when the petri plates contained malt yeast agar.
(§2) The inoculation with bacteria was accomplished using the following procedure. Twenty-four hr cultures of each of the bacteria were prepared by incubating the respective bacteria in tubes containing nutrient broth for 24 hr at 30° C. in a shaker. Dilutions of each of the 24 hr cultures were made so that 9 separate suspensions (one for each of the 9 test bacteria) were made, each containing about 10^8 colony forming units (CFU) per mL of suspension of a particular bacteria. Aliquots of 0.3 mL of each of the above suspensions were used to fill individual wells of a Steer's Replicator. For each microbial suspension, 0.3 mL was used to fill 3 wells (i.e., 3 wells of 0.3 mL each) so that for the 9 different bacteria 27 wells were filled. The Steer's Replicator was then used to inoculate the petri plates.
(§3) The petri plates were incubated at 30° C. for 48 hr and then read to determine if the test compound (i.e., the compound of Example 19) which was incorporated into the agar prevented growth of the respective bacteria. The minimum inhibitory concentration (MIC) for each bacteria was defined as the lowest concentration of the test compound which prevented growth of that bacteria.
(§4) In a similar procedure, the MIC (in ppm) of the compound of Example 11 (i.e., (2-nitrophenyl)-iodonium 2,6-dioxocyclohexylide) for various organisms was determined at an acid pH (about 6.8) and at an alkaline pH (about 8.2).
(§5) Using similar procedures, the MIC's (in ppm) of various compounds of Formula I and/or Formula II were determined for the organisms Enterobacter aerogenes and Bacillus subtilis in a neutral solution (pH about 6.8) and in an alkaline medium (pH about 8.2).

Enterobacter aerogenes = tested on: Enterobacter aerogenes
Procedure: as §1, §2, §3, §4, §5

Proteus vulgaris = details: ATCC 881
Procedure: as §1, §2, §3, §4

Klebsiella pneumoniae = details: ATCC 8308
Procedure: as §1, §2, §3, §4

Escherichia coli = details: ATCC 11229
Procedure: as §1, §2, §3, §4

[1] = tested on: Pseudomonas aeruginosa PRD-10; details: ATCC 15442
Procedure: as §1, §2, §3, §4

Salmonella choleraesuis = tested on: Salmonella choleraesuis
Procedure: as §1, §2, §3, §4

Staphylococcus aureus = details: ATCC 8538
Procedure: as §1, §2, §3, §4

Pseudomonas aeruginosa = details: ATCC 10145
Procedure: as §1, §2, §3, §4

[2] = Bacillus subtilis, alkaline growth medium (pH = 8.2), read-out: MIC (ABS)
[3] = Bacillus subtilis, neutral growth medium (pH = 6.8), read-out: MIC (NBS)
[4] = Klebsiella aerogenes, alkaline growth medium (pH = 8.2), read-out: MIC (AEA)
[5] = Klebsiella aerogenes, neutral growth medium (pH = 6.8), read-out: MIC (NEA)

O=C1CCCC(=O)[C-]1[I+]c1ccccc1[N+](=O)[O-] [Example 1, (2-nitrophenyl)-iodonium 2,6-dioxocyclohexylide]
MIC (Bacillus subtilis; ATCC 8473, Alkaline Medium (pH about 8.2)): ≤ 1.0 ppm | MIC (Bacillus subtilis; Bacillus subtilis, ATCC8473, ATCC 8473, Neutral Medium (pH about 6.8), read-out: MIC): ≤ 1 µg/mL | MIC (Enterobacter aerogenes; ATCC 13048, Alkaline Medium (pH about 8.2)): ≤ 1.0 ppm | MIC (Enterobacter aerogenes; Klebsiella aerogenes, ATCC13048, ATCC 13048, Neutral Medium (pH about 6.8), read-out: MIC): ≤ 1 µg/mL | MIC (Proteus vulgaris; Alkaline Medium (pH about 8.2)): ≤ 1.0 ppm | MIC (Proteus vulgaris; Proteus vulgaris, ATCC881, Neutral Medium (pH about 6.8), read-out: MIC): ≤ 1 µg/mL | MIC (Klebsiella pneumoniae; Alkaline Medium (pH about 8.2)): ≤ 1.0 ppm | MIC (Klebsiella pneumoniae; Klebsiella pneumoniae, ATCC8308, Neutral Medium (pH about 6.8), read-out: MIC): ≤ 1 µg/mL | MIC (Escherichia coli; Alkaline Medium (pH about 8.2)): ≤ 1.0 ppm | MIC (Escherichia coli; Escherichia coli, ATCC11229, Neutral Medium (pH about 6.8), read-out: MIC): ≤ 1 µg/mL | MIC ([1]; Alkaline Medium (pH about 8.2)): ≤ 1.0 ppm | MIC ([1]; Pseudomonas aeruginosa, ATCC15442, Neutral Medium (pH about 6.8), read-out: MIC): ≤ 1 µg/mL | MIC (Salmonella choleraesuis; ATCC 10708, Alkaline Medium (pH about 8.2)): ≤ 1.0 ppm | MIC (Salmonella choleraesuis; Salmonella enterica, ATCC 10708 / CHOLERAESUIS, Neutral Medium (pH about 6.8), read-out: MIC): ≤ 1 µg/mL | MIC (Staphylococcus aureus; Alkaline Medium (pH about 8.2)): ≤ 1.0 ppm | MIC (Staphylococcus aureus; Staphylococcus aureus, ATCC8538, Neutral Medium (pH about 6.8), read-out: MIC): ≤ 1 µg/mL | MIC (Pseudomonas aeruginosa; Alkaline Medium (pH about 8.2)): ≤ 1.0 ppm | MIC (Pseudomonas aeruginosa; Pseudomonas aeruginosa, ATCC10145, Neutral Medium (pH about 6.8), read-out: MIC): ≤ 1 µg/mL

Cc1cc(=O)[c-]([I+]c2ccccc2[N+](=O)[O-])c(=O)o1 [Example 47, (2-Nitrophenyl)-iodonium 3,4-dihydro-6-methyl-2,4-dioxo-2H-pyran-3-ylide]
MIC (Bacillus subtilis; [2]): 500 µg/mL (≈ 1340 µM) | MIC (Bacillus subtilis; [3]): 25 µg/mL (≈ 67 µM) | MIC (Enterobacter aerogenes; [4]): 500 µg/mL (≈ 1340 µM) | MIC (Enterobacter aerogenes; [5]): 100 µg/mL (≈ 268 µM)

O=C1c2ccccc2C(=O)[C-]1[I+]c1ccccc1[N+](=O)[O-] [Example 48, (2-Nitrophenyl)-iodonium 2,3-dihydro-1,3-dioxo-1H-indan-2-ylide]
MIC (Bacillus subtilis; [2]): 25 µg/mL (≈ 63.6 µM) | MIC (Bacillus subtilis; [3]): ≤ 1 µg/mL | MIC (Enterobacter aerogenes; [4]): 250 µg/mL (≈ 636 µM) | MIC (Enterobacter aerogenes; [5]): 50 µg/mL (≈ 127 µM)
